Changes are numbered by the printed parent chain.

Consider 10 molecules from US10160747B2, “Compounds and methods for kinase modulation, and indications therefor” (Plexxikon Inc., priority 2016, dated 2018).

The target of one experiment is T1, BaF3-FLT3-ITD-D835V (Homo sapiens, UniProt P36888, D835V, cells depend on it, form not given).
T1 sequence (P36888 with tags, fused parts or gaps INS600HVDFREYEYD/D835V): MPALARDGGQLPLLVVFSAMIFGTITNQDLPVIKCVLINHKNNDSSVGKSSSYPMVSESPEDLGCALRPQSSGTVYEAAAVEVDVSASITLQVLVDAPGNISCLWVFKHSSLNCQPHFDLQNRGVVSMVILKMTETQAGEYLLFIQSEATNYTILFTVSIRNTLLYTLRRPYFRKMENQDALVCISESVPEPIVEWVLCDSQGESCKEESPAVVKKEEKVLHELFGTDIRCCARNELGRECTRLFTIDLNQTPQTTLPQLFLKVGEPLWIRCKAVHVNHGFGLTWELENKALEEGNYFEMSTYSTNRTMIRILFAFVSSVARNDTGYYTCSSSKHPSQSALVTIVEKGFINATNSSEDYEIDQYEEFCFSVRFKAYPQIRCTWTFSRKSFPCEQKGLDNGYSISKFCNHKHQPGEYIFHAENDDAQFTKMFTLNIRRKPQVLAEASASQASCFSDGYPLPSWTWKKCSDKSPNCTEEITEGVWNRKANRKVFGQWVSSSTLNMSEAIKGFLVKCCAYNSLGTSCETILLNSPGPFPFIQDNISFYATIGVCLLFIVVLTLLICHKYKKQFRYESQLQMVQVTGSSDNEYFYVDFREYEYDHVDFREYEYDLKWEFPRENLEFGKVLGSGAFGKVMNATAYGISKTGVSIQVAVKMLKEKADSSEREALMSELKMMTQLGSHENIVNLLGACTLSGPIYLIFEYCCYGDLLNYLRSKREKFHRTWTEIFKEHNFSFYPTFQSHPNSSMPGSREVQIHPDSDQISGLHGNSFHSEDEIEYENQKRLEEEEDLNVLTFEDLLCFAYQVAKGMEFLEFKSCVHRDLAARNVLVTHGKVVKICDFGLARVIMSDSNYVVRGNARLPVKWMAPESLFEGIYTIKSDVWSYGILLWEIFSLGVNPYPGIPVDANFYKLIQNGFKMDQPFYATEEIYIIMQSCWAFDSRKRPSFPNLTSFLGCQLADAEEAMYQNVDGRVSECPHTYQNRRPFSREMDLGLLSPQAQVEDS
Description: Cell Assay CS0048: BaF3-FLT3-ITD-D835V CTB. Conditions: three day growth assay in the absence of IL3; read-out: Cell Assay: CS0048: BaF3-FLT3-ITD-D835V CTB:IC50. In kind it is cell-based, murine. The source says:
(§1) The BaF3 assays as developed used to generate the data in Tables 7 and 8 are identical and differ only in minor details in regards to vector design, not biological function. Both introduce the FLT3 gene with MV4-11 based ITD duplications and resistance mutations from an exogenous promoter (MSCV and CMV respectively) in the exact same cell line.
(§2) As a result of the expressed FLT3 protein, the IL3 factor dependent BaF3 cell clones become IL3-factor independent.
(§3) The compounds in Tables 7 and 8 were tested in an identical fashion by incubating such clones in with increasing concentrations. Inhibition of the FLT3 activity by an inhibitor results in factor dependency, which in the absence of IL3 results in cell death in the three day growth assays.

A further experiment concerns the target T2, BaF3-FLT3-ITD-F691L (Homo sapiens, UniProt P36888, F691L, cells depend on it, form not given).
T2 sequence (P36888 with tags, fused parts or gaps INS600HVDFREYEYD/F691L): T1 sequence (P36888 with tags, fused parts or gaps INS600HVDFREYEYD/D835V) with F701L, V845D
In words: Cell Assay CS0047: BaF3-FLT3-ITD-F691L CTB. In kind it is cell-based, murine. The settings on record: three day growth assay in the absence of IL3; read-out: Cell Assay: CS0047: BaF3-FLT3-ITD-F691L CTB:IC50.
Description: as §1, §2, §3

Another experiment addresses T3, BaF3_FLT3_ITD/F691L (Homo sapiens, UniProt P36888, F691L, cells depend on it, form not given).
T3 sequence (P36888 with tags, fused parts or gaps INS600HVDFREYEYD/F691L): T1 sequence (P36888 with tags, fused parts or gaps INS600HVDFREYEYD/D835V) with F701L, V845D
Description: Engineered BaF3 cell growth assay, FLT3 ITD/F691L. In kind it is cell-based, murine. The settings on record: three day growth assay in the absence of IL3. The source says: The FLT3 inhibitors may be assessed using the MOLM-14, Acute Myeloid Leukemia cell line that endogenously expresses FLT3 ITD or derivatives of the human FLT3 AML cell line which acquired the D835Y (activation loop) of F691L (gatekeeper) mutation after selection in escalating doses of the FLT3 Inhibitor AC220. FLT3 inhibitors may also be assessed using cells that are engineered to express mutant FLT3. For engineered cells, murine Ba/F3 cells were transfected with full-length FLT3 ITD/D835Y mutations. The parental BA/F3 cells are dependent upon Interleukin-3 (IL-3) for survival, and introduction of the FLT3 constructs rendered these cells dependent upon FLT3 kinase activity when cultured in the absences of IL-3. Engineered BA/F3 cell growth assays can be performed in either the […] of IL-3, to assess the compound inhibition of FLT3 or to detect the presence of off-target activity, respectively. Inhibitors of FLT3 kinase activity reduce or eliminate the FLT3 oncogenic signaling, resulting in reduced cell proliferation. This inhibition is measured as a function of compound concentration to assess IC50 values.
Cells were seeded at 1×10^4 cells per well of a 96 well cell culture plate in 50 μl of cell culture medium. Compounds were dissolved in DMSO, typically at a concentration of 0.5 mM and were serially diluted 1:3 for a total of eight points and added to the cells to final concentrations of […], 0.0041, 0.0014 and 0.00046 μM in 100 μl cell culture medium (final concentration 0.2% DMSO). […] The cells were incubated at 37° C., 5% CO2 for three days. CellTiter-Glo Buffer (Promega Cell Viability Assay catalog #G7573) and substrate were equilibrated to room temperature, and enzyme/substrate Recombinant Firefly Luciferase/Beetle Luciferin was reconstituted. […] The plates were read on a Tecan M1000 using Luminescence protocol modified to read 0.1 s per well. The luminescence reading assesses the ATP content, which correlates directly with cell number such that the reading as a function of compound concentration was used to determine the IC50 value. […]

Another experiment deals with T4, BA/F3-FLT3-ITD + D835Y (Homo sapiens, UniProt P36888, D835Y, cells depend on it, form not given).
T4 sequence (P36888 with tags, fused parts or gaps INS600HVDFREYEYD/D835Y): T1 sequence (P36888 with tags, fused parts or gaps INS600HVDFREYEYD/D835V) with V845Y
In words: Engineered BA/F3 cell growth assay, FLT3 ITD/D835Y. In kind it is cell-based, murine. The settings on record: three day growth assay in the absence of IL3; read-out: BaF3_FLT3_ITD/D835Y. The essentials: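 IC50 derived from CellTiter-Glo ATP luminescence after 3 days at 37 °C, 5% CO2, over eight 1:3 dilutions from 1 μM (0.2% DMSO final). Cells: IL-3-independent murine Ba/F3 expressing full-length FLT3 ITD/D835Y, 1×10^4 per well.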

Experiment [1] relates to quizartinib resistance-causing mutants. Conditions: FLT3-ITD KD mutants, in addition to other mutant isoforms; cited from earlier work.
Experiment [2] has as its system leukemia cell that express either wild type FLT3 or FLT3-ITD mutations. The settings on record: cells expressing wild type FLT3 or FLT3-ITD mutations; cited from earlier work.

As to `CC(C)(C)c1cc(NC(=O)Nc2ccc(-c3cnc(NC4CC4)nc3)cn2)no1`, the values for the GI50 at BaF3-FLT3-ITD-D835V and on BaF3-FLT3-ITD-F691L were 585 nM and 77.8 nM, respectively.

For the molecule `Cn1cc(Nc2ncc(-c3ccc(CC(=O)Nc4ccnc(C(F)(F)F)c4)cc3)cn2)cn1` [drawing 325], the GI50 on BaF3_FLT3_ITD/F691L stood at 0.313 nM; at BA/F3-FLT3-ITD + D835Y it was 0.108 nM.

With `CNC(=O)c1cc(Oc2ccc(NC(=O)Nc3ccc(Cl)c(C(F)(F)F)c3)cc2)ccn1` [sorafenib], the “activity against identified quizartinib resistance-causing mutants” value in experiment [1] was “ineffective”.

As to `CC(C)(c1cc(NC(=O)Cc2ccc(-c3ccc(NCCN4CCOCC4)nc3)cc2)no1)C(F)(F)F`, the results for the GI50 on BaF3-FLT3-ITD-D835V and at BaF3-FLT3-ITD-F691L were 145 nM and 73.9 nM, respectively.

As to `CCNc1ccc(-c2ccc(CC(=O)Nc3cc(C(C)(C)C)on3)cc2)cn1`, the values for the GI50 at BaF3-FLT3-ITD-D835V and on BaF3-FLT3-ITD-F691L were 94.2 nM and 45.4 nM, respectively.

On to `CNc1ccc(-c2ccc(CC(=O)Nc3cc(C(C)(C)C)on3)cc2)cn1`, for which the GI50 at BaF3-FLT3-ITD-D835V was 92 nM; on BaF3-FLT3-ITD-F691L it was 43.2 nM.

As to `CC(C)(C)c1cc(NC(=O)Nc2ccc(-c3cnc(NC4CCOCC4)nc3)cn2)no1`, the GI50 was found to be 673 nM at BaF3-FLT3-ITD-D835V and 110 nM on BaF3-FLT3-ITD-F691L.

Regarding `Cn1cc(Nc2ncc(-c3ccc(CC(=O)Nc4cccc(C(F)(F)F)c4)cc3)cn2)cn1` [drawing 326], the GI50 amounted to 1.54 nM on BaF3_FLT3_ITD/F691L and 0.462 nM on BA/F3-FLT3-ITD + D835Y.

With `C=CCNC1=C2C[C@@H](C)C[C@H](OC)[C@H](O)[C@@H](C)/C=C(\C)[C@H](OC(N)=O)[C@@H](OC)/C=C\C=C(/C)C(=O)NC(=CC1=O)C2=O` [17″AAG, 17AAG], in experiment [2], the “growth of leukemia cells” value is on record as “inhibited”.

Consider `Cn1cc(Nc2ncc(-c3ccc(CC(=O)Nc4ccc(C(C)(C)C)nc4)cc3)cn2)cn1` [drawing 327], for which the GI50 amounted to 0.434 nM on BaF3_FLT3_ITD/F691L and 0.444 nM at BA/F3-FLT3-ITD + D835Y.
